Results reported in ChEMBL document CHEMBL1147304, “Antioxidant metabolites from the tunicate Amaroucium multiplicatum” (J Nat Prod, 1989).
Converted amounts (≈) assume the structure as drawn.

How the values were obtained:
Liver microsomes = experiment: Antioxidant activity in rat liver microsomes assessed as inhibition of lipid peroxide formation after 30 mins; type: functional, Microsome
[1] = Inhibition of soybean arachidonate 15-lipoxygenase by oxygen electrode method; set-up: species or system Glycine max

Row | IC50 (Liver microsomes) | IC50 [1] | Compound
1 | 0.1 µg/mL (≈ 0.364 µM) | 0.5 µg/mL (≈ 1.82 µM) | COc1cc2c(cc1O)C=CC(C)(CCC=C(C)C)O2 (stereo not drawn)
2 | 0.3 µg/mL (≈ 1.36 µM) | > 10 µg/mL | Cc1cc(C(C)(C)C)c(O)c(C(C)(C)C)c1 [BUTYLATED HYDROXYTOLUENE]
3 | 0.1 µg/mL (≈ 0.406 µM) | 0.2 µg/mL (≈ 0.812 µM) | CC(C)=CCC/C(C)=C/Cc1cc(O)ccc1O [GEROQUINOL]
4 | > 10 µg/mL | > 10 µg/mL | CC(=O)Oc1c(C)c(C)c2c(c1C)CCC(C)(CCC[C@H](C)CCC[C@H](C)CCCC(C)C)O2 (stereo partly drawn) [TOCOPHEROL ACETATE]

More lines, now with the values behind:

Row | Compound | IC50 (Liver microsomes) | IC50 [1]
5 | CC(C)=CCCC(C)(O)CCc1cc(O)ccc1O (stereo not drawn) | 0.3 µg/mL (≈ 1.13 µM) | 3 µg/mL (≈ 11.3 µM)
6 | CC(C)=CCCC(C)(O)/C=C/c1cc(O)ccc1O (stereo not drawn) | 0.3 µg/mL (≈ 1.14 µM) | 
7 | CC(C)=CCCC1(C)C=Cc2cc(O)ccc2O1 (stereo not drawn) [CORDIACHROMENE A] | 0.3 µg/mL (≈ 1.23 µM) | 0.2 µg/mL (≈ 0.819 µM)
